Experimental data: patent publication US9829499B2, “Method and related systems for use with a fluidics device” (SciKon Innovation, Inc., priority 2015, dated 2017)
Where two headings read alike, the source gives them in different places.

Legend:
[1] = system: HepG2 cells
Description: (§1) To compare the effects of flow on response of HepG2 cells to Tamoxifen, cells were treated in the wells of the fluidics device where the drug was applied either to the source well at two different rates (2× and 3×), or was applied directly to individual wells in the absence of flow (static). For each condition, HepG2 cells were seeded into the individual wells of the fluidics device at a density of 30,000 cells per well in 50 uL media. This density corresponded to approximately 60% confluence. […] HepG2 cells in a fluidics device were treated with increasing concentrations of Tamoxifen over time. 150 uM of Tamoxifen was infused into the source well of the fluidics device either 2 times per day (2×) or three times per day (3×). Two acellular rows were infused with 1 uM Fluorscein to enable calculation of absolute concentration at any given time. The reagent CellTox™ Green was used to monitor cellular toxicity. Area under the curve values for each timepoint were obtained and plotted against effect expressed as a % maximum of (treated/control). Data was pooled together to obtain a single plot. EC50 values were calculated by a Sigmoid EMax model in PKSolver.
(§2) For the 2× and 3× experiment, to utilize Fluorescein as a standard for concentration, rows A and B remained acellular. After acclimating one day, media was changed to media containing a 1:2000 dilution of CellTox™ Green using volume of 100 uL per well. 400 uL of CellTox™ Green containing media was also added to the source well. Fluidic connections were allowed to form and stabilize for 30 minutes at 37° C. in a humidified incubator. Once fluid connections in each row was confirmed, 200 uL of media containing CellTox™ Green with either 150 uM Tamoxifen in 0.1% DMSO or 0.1% DMSO alone was added to the source well. To rows A&B, 200 uL of 1 uM Fluorescein in 0.1% DMSO was added to the source well. For all conditions, fluorescence was monitored using a Tecan Infinite Pro M1000 multimode plate reader optimized for Z-heights focal plane. For the 2× and 3× plates, media flow was maintained by syphoning 100 uL from well 11 and applying 100 uL fresh dosing solution to the source well at cadence corresponding to twice pre day (2×) or three times per day (3×).
(§3) For static fluid conditions, after seeding, cells acclimated for one day and then media was changed to 50 uL of media containing the noted concentration of Tamoxifen in 0.1% DMSO or 0.1% DMSO alone. Incubation proceeded for 24 hours where analysis of fluorescence determined the degree of cell death in each well. Nine replicates of each concentration were averaged.
(§4) For determining the concentration at any given time in the 2× and 3× flow plates, the RFU values obtained from the a-cellular Fluorescein control rows were averaged for each column and an actual Fluorescein concentration was determined using the Fluorescein Standard curve (see FIG. 33). The starting concentration of Fluorescein was 1 uM and the starting concentration of Tamoxifen was 150 uM therefore, the amount of fluorescein in each well was multiplied by 150 to obtain the corresponding concentration of Tamoxifen. The area under the curve (AUC) for each timepoint was obtained by multiplying the concentration value by the time in hours since the last time point using the AUCt function in PKSolver. For static conditions, the concentration was constant for the entire treatment time, therefore to obtain AUC the concentration was multiplied by 24 hours. […]

[2] = system: cultured cells; test: Viable cells by CellTiter-Glo, static plates versus fluidics device cultured cells treated over 7 and 9 days; format: cell-based
Description: Referring to FIG. 46, a comparison of static plates and fluidics device 100 cultured cells treated with acetaminophen (APAP) over 7 and 9 days is depicted. CellTiter-Glo was used to measure viable cells. Data is normalized to vehicle (DMSO) control.

[3] = system: HepG2 cells; test: Cytotoxicity of HepG2 cells with CellTox Green, fluidics device (flow) versus static culture, EC50 based on AUC exposure
Description: as §1, §2, §3, §4

SMILES	Observed EC-50 in downstream wells versus expected when using standard static culture methods [1]	what the observed EC50 suggests (effect of metabolism on cytotoxicity) [1]	toxicity (viable cells, normalized to vehicle control) ([2]; fluidics device, Day 7)	toxicity (viable cells, normalized to vehicle control) ([2]; fluidics device, Day 9)	toxicity (viable cells, normalized to vehicle control) ([2]; static plate, Day 9, 2.5 mM)	toxicity (viable cells, normalized to vehicle control) ([2]; static plate, Day 9, highest concentration 5 mM)	toxicity (viable cells, normalized to vehicle control) ([2]; static plates, Day 7)	sensitivity of HepG2 cells in the flow system relative to static systems (comparison of AUC EC-50s) ([3]; CellTox Green, flow system less sensitive than static)	Observed EC-50 in downstream wells versus expected when using standard static culture methods ([3]; fluidics device downstream wells)	what the observed EC50 suggests (effect of metabolism on cytotoxicity) ([3]; fluidics device downstream wells versus static)
CC(=O)Nc1ccc(O)cc1 [APAP, Acetaminophen]	different from expected	bio-activation of a toxic intermediate	downstream cell death effect	More pronounced downstream metabolite effect	marginal effect	obvious cell death	marginally detectable only at highest concentration	–	–	–
CC/C(=C(\c1ccccc1)c1ccc(OCCN(C)C)cc1)c1ccccc1 [Tamoxifen]	–	–	–	–	–	–	–	approximately 4 fold	different from expected	deactivation
